Read-outs that look alike come from different tables or passages of the source. Starred links: 1 amine or outer side, 2 acyl side, 3 side chain; linkers in the order of their positions; H or OH if unused. Non-standard residues stand in square brackets, D forms with d. Residues, ends and D or L forms follow the SMILES beside them. Groups on a side chain read outwards from the residue. *: point of attachment. C16 diacid = O=C(O)CCCCCCCCCCCCCCC(=O)*; γGlu = O=C(O)[C@H](CCC(=O)[*:2])N[*:1]; Palmitoyl = CCCCCCCCCCCCCCCC(=O)*; AEEA = NCCOCCOCC(=O)O; Aib = CC(C)(N)C(=O)O
What was measured:
human CRF2α receptor = molecular target: T1, human CRF2α receptor (Homo sapiens, UniProt Q13324); assay: cAMP agonism at human CRF2α receptor in TeloHEAC cells, FA modified peptides (Example 19.9); assay type: cell-based; conditions: 0% HSA, relative to urocortin 2
T1 construct: expressed in transfected cells; host or cells: TeloHEAC
T1 sequence (Q13324 1-411): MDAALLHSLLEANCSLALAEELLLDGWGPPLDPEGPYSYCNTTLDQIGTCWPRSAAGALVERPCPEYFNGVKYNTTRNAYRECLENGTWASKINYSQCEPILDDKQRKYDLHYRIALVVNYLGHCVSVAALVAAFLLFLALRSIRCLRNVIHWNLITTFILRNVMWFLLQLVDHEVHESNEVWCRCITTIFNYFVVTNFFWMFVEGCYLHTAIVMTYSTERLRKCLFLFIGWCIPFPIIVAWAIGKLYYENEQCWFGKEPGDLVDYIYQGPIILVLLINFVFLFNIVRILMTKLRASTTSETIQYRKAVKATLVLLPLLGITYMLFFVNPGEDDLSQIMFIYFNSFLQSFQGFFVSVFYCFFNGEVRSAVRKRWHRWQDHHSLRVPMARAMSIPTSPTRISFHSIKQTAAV
Experimental: Agonism of compounds for human corticotropin-releasing factor 2α (CRF2α receptor) was determined by a functional assay measuring cAMP modulation upon treatment of TeloHEAC cells stably expressing human CRF2α receptor.
Compounds were dissolved at 0.5 mM in 100% DMSO and serially diluted (1:2) in 100% DMSO for 16 dilutions. 20 nL of each dilution was then transferred to 384-well assay plate using an acoustic droplet ejection instrument. 5 μL of compound buffer (1×HBSS; 20 mM HEPES, 2 mM IBMX, 0% or 0.2% HSA) were then added to each well.
Prior to use, frozen cells were thawed quickly at 37° C. and washed (5 min at 900 rpm) with 20 mL cell buffer (1×HBSS; 20 mM HEPES). Cells were resuspended in cell buffer and adjusted to a cell density of 800.000 cells/ml.
5 μL cells (final dell density: 4000 cells/well) were dispensed in the compound-containing 384-well assay plate and incubated for 30 minutes 37° C.
The CAMP level in treated cells was determined using the Cisbio 62AM4PEC kit according to manufacturer's instruction. Finally, plates were incubated for 1 h at room temperature before measuring the fluorescence ratio between 665/620 nm.
The percent activity value (E %) was calculated by setting 100 nM of urocortin 2 (UCN2) as 100%. The in vitro potency of the compounds was quantified by determining the concentrations that caused 50% activation of maximal response (EC50) relative to urocortin 2.

CRF1R receptor = molecular target: T2, CRF1R receptor (Homo sapiens, UniProt P34998); assay: cAMP activity at anti-target CRF1R, CHO-K1 cell line clone 2 (Example 19.10); assay type: cell-based; conditions: for Emax: 100% = Sauvagine at 100 nM; for CRF1/CRF2 ratio: ratio of CRF1 EC50 to CRF2 EC50
T2 construct: host or cells: CHO-K1 clone 2
T2 sequence (P34998 24-415): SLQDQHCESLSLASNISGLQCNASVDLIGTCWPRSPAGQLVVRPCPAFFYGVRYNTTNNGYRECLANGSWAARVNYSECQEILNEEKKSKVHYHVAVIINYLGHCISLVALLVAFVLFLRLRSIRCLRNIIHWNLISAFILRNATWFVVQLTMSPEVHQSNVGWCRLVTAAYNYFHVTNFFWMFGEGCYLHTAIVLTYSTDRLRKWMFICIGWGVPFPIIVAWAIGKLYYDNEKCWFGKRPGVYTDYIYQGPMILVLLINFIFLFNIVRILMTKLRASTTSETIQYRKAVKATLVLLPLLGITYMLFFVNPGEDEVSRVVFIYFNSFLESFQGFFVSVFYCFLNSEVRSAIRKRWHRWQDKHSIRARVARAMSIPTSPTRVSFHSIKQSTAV
Method in brief: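 The cAMP read-out used the same protocol as the previous assay, except that Sauvagine at 100 nM set the 100% activation control. Cells were CHO-K1 clone 2 overexpressing CRF1R, cultured in F12 medium with 10% FBS and G418 and stored frozen until use.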

[1] = 0% HSA, CRF1R CHO-K1 clone 2, read-out: EC50 [nM] 0% HSA
[2] = Table 20 side-to-side comparison, read-out: CRF1 EC50

Structure (SMILES)	EC50 (human CRF2α receptor)	EC50 (CRF1R receptor; [1])	Emax (CRF1R receptor; CRF1R CHO-K1 clone 2)	EC50 (CRF1R receptor; [2])	CRF1/CRF2 ratio (CRF1R receptor)
CC[C@H](C)[C@H](N)C(=O)N[C@H](C(=O)N[C@@H](CC(C)C)C(=O)N[C@@H](CO)C(=O)N[C@@H](CC(C)C)C(=O)N[C@@H](CC(=O)O)C(=O)N[C@@H](C(=O)N1CCC[C@H]1C(=O)N[C@H](C(=O)NCC(=O)N[C@@H](CC(C)C)C(=O)N[C@@H](CCCCNC(=O)CC[C@H](NC(=O)CCCCCCCCCCCCCCC(=O)O)C(=O)O)C(=O)N[C@@H](CCC(N)=O)C(=O)N[C@H](C(=O)N[C@@H](CC(C)C)C(=O)N[C@@H](CC(C)C)C(=O)N[C@@H](CCCCN)C(=O)N[C@@H](CCC(N)=O)C(=O)N[C@@H](CCC(=O)O)C(=O)N[C@@H](CCCNC(=N)N)C(=O)N[C@@H](CCC(N)=O)C(=O)N[C@@H](CCCCN)C(=O)N[C@@H](CCCCN)C(=O)NC(C)(C)C(=O)N[C@@H](CCCNC(=N)N)C(=O)N[C@@H](CCC(=O)O)C(=O)N[C@@H](CCC(N)=O)C(=O)N[C@@H](C)C(=O)N[C@@H](CCC(=O)O)C(=O)N[C@@H](CCCCN)C(=O)N[C@@H](CC(N)=O)C(=O)N[C@@H](CCCCN)C(=O)N[C@@H](CCCNC(=N)N)C(=O)N[C@H](C(=O)N[C@@H](CC(C)C)C(=O)N[C@@H](CCC(=O)O)C(=O)N[C@@H](CCCNC(=N)N)C(=O)N[C@H](C(N)=O)C(C)C)[C@@H](C)CC)[C@@H](C)CC)[C@@H](C)CC)C(C)C)C(C)C [compound 196] (H-IVLSLD[dV]PIGLK([γGlu-C16 diacid])QILLKQERQKK[Aib]REQAEKNKRILERV-NH2; N-terminus assumed)	1.08 nM	> 100 nM	16.9%	> 100 nM	>500
CC[C@H](C)[C@H](N)C(=O)N[C@H](C(=O)N[C@@H](CC(C)C)C(=O)N[C@@H](CO)C(=O)N[C@@H](CC(C)C)C(=O)N[C@@H](CC(=O)O)C(=O)N[C@@H](C(=O)N1CCC[C@H]1C(=O)N[C@H](C(=O)N[C@@H](CCCCN)C(=O)N[C@@H](CC(C)C)C(=O)N[C@@H](CCCCNC(=O)CC[C@H](NC(=O)CCCCCCCCCCCCCCC(=O)O)C(=O)O)C(=O)N[C@@H](CCC(N)=O)C(=O)N[C@H](C(=O)N[C@@H](CC(C)C)C(=O)N[C@@H](CC(C)C)C(=O)N[C@@H](CCCCN)C(=O)N[C@@H](CCC(N)=O)C(=O)N[C@@H](C)C(=O)N[C@@H](CCCNC(=N)N)C(=O)N[C@@H](CCC(N)=O)C(=O)N[C@@H](CCCCN)C(=O)NC(C)(C)C(=O)N[C@@H](CCC(N)=O)C(=O)N[C@@H](CCCNC(=N)N)C(=O)N[C@@H](C)C(=O)N[C@@H](CCC(N)=O)C(=O)N[C@@H](C)C(=O)N[C@@H](CCC(=O)O)C(=O)N[C@@H](CCCCN)C(=O)N[C@@H](CC(N)=O)C(=O)N[C@@H](CCCCN)C(=O)N[C@@H](CCCNC(=N)N)C(=O)N[C@H](C(=O)N[C@@H](CC(C)C)C(=O)N[C@@H](CCC(=O)O)C(=O)N[C@@H](CCCNC(=N)N)C(=O)N[C@H](C(N)=O)C(C)C)[C@@H](C)CC)[C@@H](C)CC)[C@@H](C)CC)C(C)C)C(C)C [compound 197] (H-IVLSLD[dV]PIKLK([γGlu-C16 diacid])QILLKQARQK[Aib]QRAQAEKNKRILERV-NH2; N-terminus assumed)	2.27 nM	> 100 nM	24.4%	> 100 nM	>500
CC[C@H](C)[C@H](N)C(=O)N[C@H](C(=O)N[C@@H](CC(C)C)C(=O)N[C@@H](CO)C(=O)N[C@@H](CC(C)C)C(=O)N[C@@H](CC(=O)O)C(=O)N[C@@H](C(=O)N1CCC[C@H]1C(=O)N[C@H](C(=O)N[C@@H](CCCCN)C(=O)N[C@@H](CC(C)C)C(=O)N[C@@H](CCCCNC(=O)COCCOCCNC(=O)COCCOCCNC(=O)CC[C@H](NC(=O)CCCCCCCCCCCCCCC(=O)O)C(=O)O)C(=O)N[C@@H](CCC(N)=O)C(=O)N[C@H](C(=O)N[C@@H](CC(C)C)C(=O)N[C@@H](CC(C)C)C(=O)N[C@@H](CCCCN)C(=O)N[C@@H](CCC(N)=O)C(=O)N[C@@H](CCC(=O)O)C(=O)N[C@@H](CCCNC(=N)N)C(=O)N[C@@H](CCC(N)=O)C(=O)N[C@@H](CCCCN)C(=O)NC(C)(C)C(=O)N[C@@H](CCC(N)=O)C(=O)N[C@@H](CCCNC(=N)N)C(=O)N[C@@H](CCC(=O)O)C(=O)N[C@@H](CCC(N)=O)C(=O)N[C@@H](C)C(=O)N[C@@H](CCC(=O)O)C(=O)N[C@@H](CCCCN)C(=O)N[C@@H](CC(N)=O)C(=O)N[C@@H](CCCCN)C(=O)N[C@@H](CCC(N)=O)C(=O)N[C@H](C(=O)N[C@@H](CC(C)C)C(=O)N[C@@H](C)C(=O)N[C@@H](CCC(N)=O)C(=O)N[C@H](C(N)=O)C(C)C)[C@@H](C)CC)[C@@H](C)CC)[C@@H](C)CC)C(C)C)C(C)C [compound 198] (H-IVLSLD[dV]PIKLK([AEEA-AEEA-γGlu-C16 diacid])QILLKQERQK[Aib]QREQAEKNKQILAQV-NH2; N-terminus assumed)	0.49 nM	> 100 nM	1.4%		

Now those with a lower EC50 (human CRF2α receptor), led by results:

EC50 (human CRF2α receptor)	EC50 (CRF1R receptor; [1])	Emax (CRF1R receptor; CRF1R CHO-K1 clone 2)	EC50 (CRF1R receptor; [2])	CRF1/CRF2 ratio (CRF1R receptor)	Structure (SMILES)
0.34 nM	> 100 nM	17.1%	> 100 nM	>500	CC[C@H](C)[C@H](N)C(=O)N[C@H](C(=O)N[C@@H](CC(C)C)C(=O)N[C@@H](CO)C(=O)N[C@@H](CC(C)C)C(=O)N[C@@H](CC(=O)O)C(=O)N[C@@H](C(=O)N1CCC[C@H]1C(=O)N[C@H](C(=O)NCC(=O)N[C@@H](CC(C)C)C(=O)N[C@@H](CCCCNC(=O)CC[C@H](NC(=O)CCCCCCCCCCCCCCC(=O)O)C(=O)O)C(=O)N[C@@H](CCC(N)=O)C(=O)N[C@H](C(=O)N[C@@H](CC(C)C)C(=O)N[C@@H](CC(C)C)C(=O)N[C@@H](CCCCN)C(=O)N[C@@H](CCC(N)=O)C(=O)N[C@@H](CCC(=O)O)C(=O)N[C@@H](CCCNC(=N)N)C(=O)N[C@@H](CCC(N)=O)C(=O)N[C@@H](CCCCN)C(=O)N[C@@H](CCCCN)C(=O)NC(C)(C)C(=O)N[C@@H](CCCNC(=N)N)C(=O)N[C@@H](CCC(N)=O)C(=O)N[C@@H](CCC(N)=O)C(=O)N[C@@H](C)C(=O)N[C@@H](CCC(=O)O)C(=O)N[C@H](C(=O)N[C@@H](CC(N)=O)C(=O)N[C@@H](CCCCN)C(=O)N[C@@H](CCCNC(=N)N)C(=O)N[C@H](C(=O)N[C@@H](CC(C)C)C(=O)N[C@@H](CCC(=O)O)C(=O)N[C@@H](CCCNC(=N)N)C(=O)N[C@H](C(N)=O)C(C)C)[C@@H](C)CC)[C@@H](C)O)[C@@H](C)CC)[C@@H](C)CC)C(C)C)C(C)C [compound 195] (H-IVLSLD[dV]PIGLK([γGlu-C16 diacid])QILLKQERQKK[Aib]RQQAETNKRILERV-NH2)
0.16 nM					CCCCCCCCCCCCCCCC(=O)N[C@@H](CCC(=O)N[C@@H](CCC(=O)NCCOCCOCC(=O)NCCOCCOCC(=O)NCCCC[C@H](NC(=O)[C@H](CC(C)C)NC(=O)CNC(=O)[C@@H](NC(=O)[C@@H]1CCCN1C(=O)[C@H](NC(=O)[C@H](CC(=O)O)NC(=O)[C@H](CC(C)C)NC(=O)[C@H](CO)NC(=O)[C@H](CC(C)C)NC(=O)[C@@H](NC(=O)[C@@H](N)[C@@H](C)CC)C(C)C)C(C)C)[C@@H](C)CC)C(=O)N[C@@H](CCC(N)=O)C(=O)N[C@H](C(=O)N[C@@H](CC(C)C)C(=O)N[C@@H](CC(C)C)C(=O)N[C@@H](CCCCN)C(=O)N[C@@H](CCC(N)=O)C(=O)N[C@@H](CCC(=O)O)C(=O)N[C@@H](CCCNC(=N)N)C(=O)N[C@@H](CCC(N)=O)C(=O)N[C@@H](CCCCN)C(=O)N[C@@H](CCCCN)C(=O)NC(C)(C)C(=O)N[C@@H](CCCNC(=N)N)C(=O)N[C@@H](CCC(=O)O)C(=O)N[C@@H](CCC(N)=O)C(=O)N[C@@H](C)C(=O)N[C@@H](CCC(=O)O)C(=O)N[C@H](C(=O)N[C@@H](CC(N)=O)C(=O)N[C@@H](CCCCN)C(=O)N[C@@H](CCC(N)=O)C(=O)N[C@H](C(=O)N[C@@H](CC(C)C)C(=O)N[C@@H](C)C(=O)N[C@@H](CCC(N)=O)C(=O)N[C@H](C(N)=O)C(C)C)[C@@H](C)CC)[C@@H](C)O)[C@@H](C)CC)C(=O)O)C(=O)O [compound 217] (H-IVLSLD[dV]PIGLK([AEEA-AEEA-γGlu-γGlu-Palmitoyl])QILLKQERQKK[Aib]REQAETNKQILAQV-NH2; N-terminus assumed)

Reference: patent US12679878B2, “CRF2 receptor agonists and their use in therapy” (SANOFI, priority 2020, dated 2026)
